From PubChem BioAssay (NCI)
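Results reflect a 48-hour exposure of cells in 96-well plates to compound at five concentrations. Abbreviation: GI50, concentration required for 50% inhibition of growth. TGI: concentration producing complete growth inhibition.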

Columns and labels:
Experiment in all cases: NCI tumour cell line growth inhibition, 48 h; in the data active = GI50 below about 0.43 µM; inactive = the rest
[1] = system: LOX IMVI melanoma
[2] = system: A498 renal
[3] = system: MOLT-4 leukemia
[4] = system: SK-OV-3 ovarian
[5] = system: HCT-15 colon
[6] = system: SF-268 CNS
[7] = system: MDA-MB-231 breast
[8] = system: OVCAR-4 ovarian
[9] = system: SN12C renal
[10] = system: 786-0 renal
[11] = system: MDA-MB-435
[12] = system: T-47D breast
[13] = system: CCRF-CEM leukemia
[14] = system: HCC-2998 colon
[15] = system: RXF 393 renal
[16] = system: IGROV1 ovarian
[17] = system: UACC-62 melanoma
[18] = system: M14 melanoma
[19] = system: NCI-H23 lung
[20] = system: HOP-62 NSCLC
[21] = system: ACHN renal
[22] = system: UACC-257 melanoma
[23] = system: MALME-3M melanoma
[24] = system: BT-549 breast
[25] = system: SK-MEL-2 melanoma
[26] = system: SF-539 CNS
[27] = system: HT29 colon
[28] = system: SK-MEL-5 melanoma
[29] = system: MCF7 breast
[30] = system: TK-10 renal
[31] = system: KM12 colon
[32] = system: OVCAR-5 ovarian
[33] = system: NCI-H460 lung
[34] = system: HS 578T breast
[35] = system: DU-145 prostate
[36] = system: HCT-116 colon
[37] = system: SW-620 colon
[38] = system: NCI/ADR-RES ovarian
[39] = system: RPMI-8226 leukemia
[40] = system: SF-295 CNS
[41] = system: COLO 205 colon
[42] = system: HOP-92 NSCLC
[43] = system: SK-MEL-28 melanoma
[44] = system: NCI-H226 lung
[45] = system: NCI-H522 lung
[46] = system: SNB-75 CNS
[47] = system: UO-31 renal
[48] = system: OVCAR-8 ovarian
[49] = system: OVCAR-3 ovarian
[50] = system: A549 NSCLC
[51] = system: SNB-19 CNS
[52] = system: EKVX NSCLC
[53] = system: CAKI-1 renal
[54] = system: PC-3 prostate
[55] = system: HL-60(TB) leukemia
[56] = system: K-562 leukemia
[57] = system: U251 CNS

CCOC(=O)c1nnn(-c2no[n+]([O-])c2-c2ccc(OC)cc2)c1COc1cccc2cccnc12
5.24 µM: TGI [10]
6.15 µM: TGI [43]
6.38 µM: TGI [53]
21.9 µM: TGI [38]
3.59 µM: TGI [36]
15 µM: TGI [6]
11.5 µM: TGI [33]
9.98 µM: TGI [14]
35.2 µM: TGI [52]
20.6 µM: TGI [42]
9.95 µM: TGI [25]
4.07 µM: TGI [15]
5.09 µM: TGI [11]
13.3 µM: TGI [8] | TGI [34]
8.21 µM: TGI [32]
16 µM: TGI [16]
7.35 µM: TGI [30]
13.7 µM: TGI [40]
1.44 µM: TGI [1]
inactive: GI50 [2] 2.15 µM | GI50 [3] 1.91 µM | GI50 [4] 6.12 µM | GI50 [5] 2.38 µM | GI50 [6] 3.03 µM | GI50 [7] 2.73 µM | GI50 [8] 2.34 µM | GI50 [9] 0.638 µM | GI50 [10] 2.29 µM | GI50 [11] 1.16 µM | GI50 [12] 4.67 µM | GI50 [14] 3.38 µM | GI50 [15] 1.77 µM | GI50 [16] 4.27 µM | GI50 [17] 2.38 µM | GI50 [18] 1.69 µM | GI50 [19] 3.79 µM | GI50 [20] 4.7 µM | GI50 [21] 1.7 µM | GI50 [23] 2.44 µM | GI50 [24] 0.657 µM | GI50 [25] 1.98 µM | GI50 [26] 2.19 µM | GI50 [27] 1.42 µM | GI50 [28] 3.46 µM | GI50 [29] 1.97 µM | GI50 [30] 2.59 µM | GI50 [31] 4.32 µM | GI50 [32] 2.9 µM | GI50 [33] 3.29 µM | GI50 [34] 2.76 µM | GI50 [35] 5.24 µM | GI50 [38] 3.05 µM | GI50 [39] 0.481 µM | GI50 [40] 3.09 µM | GI50 [41] 2.33 µM | GI50 [42] 5.09 µM | GI50 [43] 2.22 µM | GI50 [44] 6.3 µM | GI50 [45] 0.51 µM | GI50 [46] 3.41 µM | GI50 [47] 2.45 µM | GI50 [48] 2.23 µM | GI50 [49] 2.8 µM | GI50 [50] 3.87 µM | GI50 [51] 3.25 µM | GI50 [52] 7.79 µM | GI50 [53] 2.23 µM | GI50 [54] 3.98 µM | GI50 [55] 1.07 µM
2.16 µM: TGI [45]
8.2 µM: TGI [47]
12.8 µM: TGI [17]
> 100 µM: TGI [4] | TGI [13]
1.8 µM: TGI [37]
16.1 µM: TGI [50]
17 µM: TGI [29]
5.5 µM: TGI [41]
8.75 µM: TGI [2]
3.1 µM: TGI [24]
7.03 µM: TGI [5]
14 µM: TGI [51]
3.55 µM: TGI [9]
39.7 µM: TGI [44]
14.1 µM: TGI [46]
12.9 µM: TGI [28]
8.47 µM: TGI [3]
25.9 µM: TGI [20]
7.49 µM: TGI [18]
25.7 µM: TGI [22]
8.03 µM: TGI [48]
3.45 µM: TGI [27]
3.38 µM: TGI [39]
6.13 µM: TGI [26]
7.05 µM: TGI [49]
7.98 µM: TGI [7]
17.8 µM: TGI [31]
5.31 µM: TGI [55]
28.8 µM: TGI [12]
16.3 µM: TGI [54]
17.1 µM: TGI [19] | TGI [35]
6.31 µM: TGI [23]
active: GI50 [1] 0.355 µM | GI50 [13] 0.318 µM | GI50 [36] 0.391 µM | GI50 [37] 0.399 µM
3.29 µM: TGI [21]

Cc1cc(C2CC(O)C(CO)O2)c(Cl)cc1Cl (configuration not stated)
inactive: GI50 [1] 84.3 µM | GI50 [2] 58.2 µM | GI50 [4] > 100 µM | GI50 [5] > 100 µM | GI50 [6] > 100 µM | GI50 [7] 69.5 µM | GI50 [9] > 100 µM | GI50 [10] > 100 µM | GI50 [11] > 100 µM | GI50 [12] > 100 µM | GI50 [13] > 100 µM | GI50 [56] > 100 µM | GI50 [14] > 100 µM | GI50 [15] > 100 µM | GI50 [16] 46.3 µM | GI50 [17] 39.9 µM | GI50 [18] > 100 µM | GI50 [19] > 100 µM | GI50 [20] > 100 µM | GI50 [21] > 100 µM | GI50 [22] > 100 µM | GI50 [23] > 100 µM | GI50 [24] > 100 µM | GI50 [25] > 100 µM | GI50 [26] > 100 µM | GI50 [57] > 100 µM | GI50 [27] > 100 µM | GI50 [28] > 100 µM | GI50 [29] > 100 µM | GI50 [30] > 100 µM | GI50 [31] > 100 µM | GI50 [32] > 100 µM | GI50 [33] > 100 µM | GI50 [34] 84.8 µM | GI50 [35] > 100 µM | GI50 [36] > 100 µM | GI50 [37] > 100 µM | GI50 [38] > 100 µM | GI50 [39] 70.4 µM | GI50 [40] > 100 µM | GI50 [41] > 100 µM | GI50 [42] 89.4 µM | GI50 [43] > 100 µM | GI50 [44] 56.4 µM | GI50 [45] > 100 µM | GI50 [47] > 100 µM | GI50 [48] > 100 µM | GI50 [49] > 100 µM | GI50 [50] > 100 µM | GI50 [51] > 100 µM | GI50 [52] 98.4 µM | GI50 [53] > 100 µM | GI50 [54] 77.8 µM | GI50 [55] > 100 µM
> 100 µM: TGI [1] | TGI [2] | TGI [4] | TGI [5] | TGI [6] | TGI [7] | TGI [9] | TGI [10] | TGI [11] | TGI [12] | TGI [13] | TGI [56] | TGI [14] | TGI [15] | TGI [16] | TGI [17] | TGI [18] | TGI [19] | TGI [20] | TGI [21] | TGI [22] | TGI [23] | TGI [24] | TGI [25] | TGI [26] | TGI [57] | TGI [27] | TGI [28] | TGI [29] | TGI [30] | TGI [31] | TGI [32] | TGI [33] | TGI [34] | TGI [35] | TGI [36] | TGI [37] | TGI [38] | TGI [39] | TGI [40] | TGI [41] | TGI [42] | TGI [43] | TGI [44] | TGI [45] | TGI [47] | TGI [48] | TGI [49] | TGI [50] | TGI [51] | TGI [52] | TGI [53] | TGI [54] | TGI [55]
